{"source": "patent US20100203110A1", "about": "“Therapeutics for Cancer Using 3-Bromopyruvate and Other Selective Inhibitors of ATP Production” (The Johns Hopkins University, priority 2006, published 2010)", "key": {"[1]": {"tested_on": "liver implanted VX2 tumors", "experiment": "Systemic delivery via marginal ear vein, animals with liver implanted VX2 tumors", "format": "in vivo, rabbit", "conditions": "25 ml, 0.5 mM via marginal ear vein", "text": "(§1) Finally, it was important to examine the effect of 3-BrPA when delivered systemically (i.e., via the general circulation) on both animal toxicity and its capacity to damage liver implanted tumors."}, "VX2 tumor": {"tested_on": "VX2 tumor", "experiment": "FDG uptake in orthotopic rabbit model of liver cancer, IA versus IV", "format": "in vivo", "method": "To develop a new therapeutic strategy to cure patients with hepatocellular carcinoma, a similar series of experiments was conducted on the orthotopic rabbit model of liver cancer (VX2). The effects of 3-bromopyruvate injected intraarterially (IA) was compared to those of 3-bromopyruvate injected intravenously (N) on FDG uptake in the VX2 tumor. The optimal dose of 3-bromopyruvate for both IA and N administration was then determined through an extensive dose-response analysis. In the IA group, 3-bromopyruvate was infused over one hour, FDG injected at the 30-minute mark and all animals were then sacrificed one hour after the FDG injection. Tumors and all major organs were removed, weighed and analyzed in a gamma counter."}, "Type II hexokinase": {"biological_target": "T1, Type II hexokinase (Homo sapiens, UniProt P52789)", "T1 construct": "The cells were harvested, total protein extracted, purified and used to run a western blot; endogenous in cells; host or cells: Hep G2", "T1 sequence (P52789 1-917)": "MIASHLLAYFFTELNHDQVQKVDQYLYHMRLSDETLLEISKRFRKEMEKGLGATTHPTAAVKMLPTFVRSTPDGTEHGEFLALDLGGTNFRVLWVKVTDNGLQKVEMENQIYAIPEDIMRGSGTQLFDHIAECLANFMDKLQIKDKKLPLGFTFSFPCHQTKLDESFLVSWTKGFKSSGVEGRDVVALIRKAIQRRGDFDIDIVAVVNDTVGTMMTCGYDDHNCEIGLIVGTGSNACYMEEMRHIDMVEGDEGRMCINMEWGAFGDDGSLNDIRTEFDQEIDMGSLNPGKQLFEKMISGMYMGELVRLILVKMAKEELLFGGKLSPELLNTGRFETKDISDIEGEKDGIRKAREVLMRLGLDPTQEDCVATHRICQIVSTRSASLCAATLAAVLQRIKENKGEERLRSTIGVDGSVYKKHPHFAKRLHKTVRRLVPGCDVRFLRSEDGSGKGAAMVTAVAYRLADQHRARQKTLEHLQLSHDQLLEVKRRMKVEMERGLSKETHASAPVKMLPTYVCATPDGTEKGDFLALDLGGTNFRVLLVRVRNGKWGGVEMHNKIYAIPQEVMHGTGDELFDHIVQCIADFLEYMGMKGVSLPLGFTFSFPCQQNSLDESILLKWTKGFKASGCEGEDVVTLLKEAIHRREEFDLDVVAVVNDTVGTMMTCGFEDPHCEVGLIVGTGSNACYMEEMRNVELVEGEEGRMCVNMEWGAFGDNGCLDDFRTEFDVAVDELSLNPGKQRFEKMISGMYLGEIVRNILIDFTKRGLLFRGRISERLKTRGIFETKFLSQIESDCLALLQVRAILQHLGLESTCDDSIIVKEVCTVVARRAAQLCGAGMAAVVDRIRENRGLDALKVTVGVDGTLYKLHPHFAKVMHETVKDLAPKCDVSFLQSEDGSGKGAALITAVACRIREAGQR", "experiment": "Binding of 14C-labeled 3-bromopyruvate in Hep G2 cells (western blot / autoradiograph)", "conditions": "1 hour in HBSS", "method": "In a further study, the human hepatocellular carcinoma cell line (HCC), Hep G2, was treated with ^14C-labeled 3-bromopyruvate for a period of 1 hour in HBSS. The cells were harvested, total protein extracted, purified and used to run a western blot. They were then transferred onto a membrane, probed with a Type II hexokinase specific antibody and the antibody binding signal was captured on film through Chemiluminescent detection system (western blotting). The corresponding gel was also separately exposed to an autoradiograph."}, "\"metastatic\" lung tumors": {"tested_on": "\"metastatic\" lung tumors", "experiment": "Systemic delivery via marginal ear vein, metastatic lung nodules", "format": "in vivo, rabbit", "method": "FIG. 4 depicts the effect of systemic delivery of 3-BrPA on animals harboring the liver implanted VX2 tumor. FIG. 4A depicts histological sections of 9 different tissues isolated 4 days after injecting 3-BrPA (25 ml 0.5 mM) into a marginal ear vein. No damage to these tissues is evident. (Magnification=120×). FIG. 4B depicts a section from a liver implanted VX2 tumor isolated from a control animal not receiving 3-BrPA. […] Cells in both appear completely viable. (Magnification 120×) FIG. 4D depicts a section of lung tissue isolated from an animal in which the liver harbored a VX2 tumor after 14 days of growth. […] (Animals evaluated=4).\nas §1"}, "HepG2": {"tested_on": "HepG2", "experiment": "ATP levels after treatment, HepG2", "format": "cell-based, human", "conditions": "0.1, 0.2, 0.3 mM for 1 and 3 hours", "method": "ATP levels were measured in various cell lines, e.g., HepG2, Sk-Hep1, and Vx-2 after 3-bromopyruvate treatment. In each case, cells were treated with increasing concentration of 3-bromopyruvate (0.1 mM, 0.2 mM, and 0.3 mM) for 1 and 3 hours before measuring ATP levels in the cell. FIGS. 5 (A-C) show the ATP depletion observed following 3-bromopyruvate treatment in HepG2, Sk-Hep1, and Vx-2 cell lines, respectively."}, "[2]": {"conditions": "IA group, infused over one hour"}}}
{"compound": "O=C(O)C(=O)CBr", "note": "[3-bromopyruvate]", "values": [{"measurement": "animal behavior", "setting": "[1]", "value": "normal behavior"}, {"measurement": "effect on liver implanted VX2 tumors", "setting": "[1]", "value": "no killing effect"}, {"measurement": "histological examination of 9 major tissues", "setting": "[1]; 4 days", "value": "no obvious damage"}, {"measurement": "FDG uptake in any other organs", "setting": "VX2 tumor; [2]", "value": "No difference in uptake"}, {"measurement": "reduction of FDG uptake in the tumor", "setting": "VX2 tumor; [2]", "value": 80, "unit": "%"}, {"measurement": "FDG uptake in other organs", "setting": "VX2 tumor; N (intravenous) group", "value": "decreases in FDG uptake were also recorded in the lung, brain and liver"}, {"measurement": "decrease of FDG uptake in the tumor", "setting": "VX2 tumor; N (intravenous) group", "value": 30, "unit": "%"}, {"measurement": "binding to Type II hexokinase", "setting": "Type II hexokinase", "value": "directly binds"}, {"measurement": "metastatic lung tumors with a diameter greater than 1 mm", "setting": "\"metastatic\" lung tumors; 25 ml 0.5 mM, 4 days", "value": "almost complete disappearance"}, {"measurement": "number of metastatic lung tumors greater than 1 mm in diameter", "setting": "\"metastatic\" lung tumors; of >27 tumors counted, untreated 5", "value": "none"}, {"measurement": "ATP levels", "setting": "HepG2", "value": "ATP depletion"}]}
